Earlier results, collected in patent US20220215898A1, “METHODS AND […] FOR GENERATING A VIRTUAL MODEL OF XENOBIOTIC EXPOSURE USING TRANS[…] OF LIQUID BIOPSY SAMPLES” (Certara USA, Inc., priority 2019, published 2022).

Conditions: compound files selected from the Simcyp library

| SMILES | clearance category of CYP3A substrate |
| --- | --- |
| Cc1nnc2n1-c1ccc(Cl)cc1C(c1ccccc1)=NC2 [alprazolam] | low clearance |
| Cc1ncc2n1-c1ccc(Cl)cc1C(c1ccccc1F)=NC2 [midazolam] | medium clearance |
